B1: Cdt2^PIP-3A: Cdt2 with I709, Y712, and F713 all mutated to alanine (protein, UniProt Q9NZJ0 1-730, looked up, variant I709A Y712A F713A)
Denticleless protein homolog: MLFNSVLRQPQLGVLRNGWSSQYPLQSLLTGYQCSGNDEHTSYGETGVPVPPFGCTFSSAPNMEHVLAVANEEGFVRLYNTESQSFRKKCFKEWMAHWNAVFDLAWVPGELKLVTAAGDQTAKFWDVKAGELIGTCKGHQCSLKSVAFSKFEKAVFCTGGRDGNIMVWDTRCNKKDGFYRQVNQISGAHNTSDKQTPSKPKKKQNSKGLAPSVDFQQSVTVVLFQDENTLVSAGAVDGIIKVWDLRKNYTAYRQEPIASKSFLYPGSSTRKLGYSSLILDSTGSTLFANCTDDNIYMFNMTGLKTSPVAIFNGHQNSTFYVKSSLSPDDQFLVSGSSDEAAYIWKVSTPWQPPTVLLGHSQEVTSVCWCPSDFTKIATCSDDNTLKIWRLNRGLEEKPGGDKLSTVGWASQKKKESRPGLVTVTSSQSTPAKAPRAKCNPSNSSPSSAACAPSCAGDLPLPSNTPTFSIKTSPAKARSPINRRGSVSSVSPKPPSSFKMSIRNWVTRTPSSSPPITPPASETKIMSPRKALIPVSQKSSQAEACSESRNRVKRRLDSSCLESVKQKCVKSCNCVTELDGQVENLHLDLCCLAGNQEDLSKDSLGPTKSSKIEGAGTSISEPPSPISPYASESCGTLPLPLRPCGEGSEMVGKENSSPENKNWLLAMAAKRKAENPSPRSPSSQTPNSRRQSGKKLPSPVTITPSSMRKACTAAHRKSQEDFCGPEHSTEL
modifications: FLAG tag
notes: Cdt2 with I709, Y712, and F713 all mutated to alanine

Legend:
[1] = system: Cdt1; assay: Co-immunoprecipitation of Cdt1 with FLAG-tagged Cdt2; type: cell-based, human; settings: anti-FLAG IP, HEK293, with or without UV irradiation
Text: Figure 3. […] HEK293 cells were transfected with plasmids expressing the indicated Cdt2 fused to a C-terminal FLAG tag, cross-linked, and precipitated with anti-FLAG antibodies (arrows). […] The bands in the blank lanes for Cul4A blotting correspond to the cross-reacting bands to pre-stained marker. […] HEK293 cells were transfected with the indicated plasmids and treated as in A. * indicates nonspecific bands derived from IgGs. (C) A schematic drawing of the Cdt2 domain structure highlighting the C-terminal PIP box and a sequence alignment of PIP boxes in various organisms. The alanine-changed PIP box mutant of Cdt2 was shown (PIP-3A) together with Cdt1 PIP box. (D) HEK293 cells were transfected with Cdt2^WT or PIP box mutant (Cdt2^PIP-3A) C-terminally fused to a FLAG tag, treated as in B, and Cdt2 was precipitated with anti-FLAG resin.
Next, we examined the interaction of CRL4^Cdt2 ligase with its target protein Cdt1, using HEK293 cells alone and cells transfected with Cdt2^WT or Cdt2^PIP-3A, with or without UV irradiation. […]

[2] = system: Cdt1 degradation in S/G2, U2OS cells; assay: Cdt1-positive cells among cyclin A-positive U2OS cells; type: cell-based, human; settings: siCdt2 and/or siSkp2
Description: Next, we examined Cdt1 degradation after the onset of the S phase in the Cdt2^PIP-3A-expressing cells. Cyclin A is present in the S and G2 phase, when Cdt1 should be degraded. Thus, Cdt1 should be present in cells that are negative for cyclin A, and absent in cells that are positive for cyclin A ([Nishitani et al, 2006]; [Xouri et al., 2007a], [2007b]). Cdt1 degradation after the onset of the S phase is carried out by two ubiquitin ligases, CRL1^Skp2 and CRL4^Cdt2. We depleted the substrate recognition subunits, Cdt2 and/or Skp2, by siRNA, and the percentage of Cdt1 positive cells among cyclin A–positive cells was assessed by immunofluorescence. […]
Figure 8. […] The frequency of Cdt1-positive (+) cells among cyclin A–positive (+) cells was calculated (n = 3). […] (D) Cells treated with siCdt2 or control siLuc were measured for their nuclear size (n = 200 for each), and are shown in a scatter plot. […]
For Western blotting, whole-cell lysates were prepared by lysing cell pellets directly in SDS–PAGE buffer. […] Protein levels were analysed by ImageJ software.
Double-stranded RNAs were transfected at 100 nM using Oligofectamine (Invitrogen) or HiPerFect (QIAGEN). […] For Cdt1 silencing in Fig 1A and B, unsychronized HeLa cells were transfected twice with 200 nM of Cdt1 siRNA or control luciferase siRNA using Lipofectamine 2000 with a time interval of 24 h and were analysed 48 h after the second transfection. […]

| Molecule | co-precipitation of PCNA and Cdt1 [1] | rescue of Cdt1 degradation in cell cycle [2] |
| --- | --- | --- |
| Cdt2: Cdt2 tagged with GFP, transiently expressed in MCF7 cells | both PCNA and Cdt1 were precipitated, and their amounts were notably increased after UV irradiation | fully complemented the depletion of Cdt2, and also the co-depletion of Skp2 |
| B1 | neither Cdt1 nor PCNA co-precipitated well | not fully rescued |
